# pIC50: −log10 of the molar value.
# Columns and labels:
# HT-29 [1] = assay: Growth inhibition of human HT-29 cells assessed as cell growth at 10 uM after 48 hrs by sulforhodamine B assay; format: functional; conditions: HT-29, 48 h, read-out: Activity
# HCT-116 = assay: Growth inhibition of human HCT116 cells assessed as cell growth at 10 uM after 48 hrs by sulforhodamine B assay; format: functional; conditions: HCT-116, 48 h, read-out: Activity
# SK-OV-3 = assay: Growth inhibition of human SKOV3 cells assessed as cell growth at 10 uM after 48 hrs by sulforhodamine B assay; format: functional; conditions: SK-OV-3, 48 h, read-out: Activity
# SK-MEL-28 = assay: Growth inhibition of human SK-MEL-28 cells assessed as cell growth at 10 uM after 48 hrs by sulforhodamine B assay; format: functional; conditions: SK-MEL-28, 48 h, read-out: Activity
# PC-3 = assay: Growth inhibition of human PC3 cells assessed as cell growth at 10 uM after 48 hrs by sulforhodamine B assay; format: functional; conditions: PC-3, 48 h, read-out: Activity
# U-251 [2] = assay: Growth inhibition of human U251 cells assessed as cell growth at 10 uM after 48 hrs by sulforhodamine B assay; format: functional; conditions: U-251, 48 h, read-out: Activity
# UACC-257 = assay: Growth inhibition of human UACC257 cells assessed as cell growth at 10 uM after 48 hrs by sulforhodamine B assay; format: functional; conditions: UACC-257, 48 h, read-out: Activity
# HL-60(TB) = assay: Growth inhibition of human HL-60(TB) cells assessed as cell growth at 10 uM after 48 hrs by sulforhodamine B assay; format: functional; conditions: HL-60, 48 h, read-out: Activity
# HOP-62 = assay: Growth inhibition of human HOP62 cells assessed as cell growth at 10 uM after 48 hrs by sulforhodamine B assay; format: functional; conditions: HOP-62, 48 h, read-out: Activity
# NCI-H226 [3] = assay: Growth inhibition of human NCI-H226 cells assessed as cell growth at 10 uM after 48 hrs by sulforhodamine B assay; format: functional; conditions: NCI-H226, 48 h, read-out: Activity
# A549 [4] = assay: Growth inhibition of human A549/ATCC cells assessed as cell growth at 10 uM after 48 hrs by sulforhodamine B assay; format: functional; conditions: A549, 48 h, read-out: Activity
# SNB-19 = assay: Growth inhibition of human SNB19 cells assessed as cell growth at 10 uM after 48 hrs by sulforhodamine B assay; format: functional; conditions: SNB-19, 48 h, read-out: Activity
# NCI-H23 = assay: Growth inhibition of human NCI-H23 cells assessed as cell growth at 10 uM after 48 hrs by sulforhodamine B assay; format: functional; conditions: NCI-H23, 48 h, read-out: Activity
# 786-0 = assay: Growth inhibition of human 786-0 cells assessed as cell growth at 10 uM after 48 hrs by sulforhodamine B assay; format: functional; conditions: 786-0, 48 h, read-out: Activity
# MDA-MB-468 = assay: Growth inhibition of human MDA-MB-468 cells after 48 hrs by sulforhodamine B assay; format: functional, cell-based; conditions: MDA-MB-468, 48 h
# U-251 [5] = assay: Growth inhibition of human U251 cells after 48 hrs by sulforhodamine B assay; format: functional; conditions: U-251, 48 h
# ACHN = assay: Growth inhibition of human ACHN cells after 48 hrs by sulforhodamine B assay; format: functional
# SNB-75 = assay: Growth inhibition of human SNB75 cells after 48 hrs by sulforhodamine B assay; format: functional; conditions: SNB-75, 48 h
# SF-539 = assay: Growth inhibition of human SF539 cells after 48 hrs by sulforhodamine B assay; format: functional; conditions: SF-539, 48 h
# HT-29 [6] = assay: Growth inhibition of human HT-29 cells after 48 hrs by sulforhodamine B assay; format: functional; conditions: HT-29, 48 h
# HOP-92 = assay: Growth inhibition of human HOP92 cells after 48 hrs by sulforhodamine B assay; format: functional, cell-based; conditions: HOP-92, 48 h
# NCI-H226 [7] = assay: Growth inhibition of human NCI-H226 cells after 48 hrs by sulforhodamine B assay; format: functional; conditions: NCI-H226, 48 h
# A549 [8] = assay: Growth inhibition of human A549/ATCC cells after 48 hrs by sulforhodamine B assay; format: functional; conditions: A549, 48 h
# A498 = assay: Growth inhibition of human A498 cells after 48 hrs by sulforhodamine B assay; format: functional, cell-based; conditions: A498, 48 h
# MCF7 = assay: Growth inhibition of human MCF7 cells after 48 hrs by sulforhodamine B assay; format: functional; conditions: MCF7, 48 h
# [9] = Growth inhibition of human NCI-ADR-RES cells after 48 hrs by sulforhodamine B assay; format: functional
# T47D = assay: Growth inhibition of human T47D cells after 48 hrs by sulforhodamine B assay; format: functional
# [10] = Growth inhibition of human HCC2998 cells after 48 hrs by sulforhodamine B assay; format: functional; conditions: HCC 2998, 48 h
# NCI-H460 = assay: Growth inhibition of human NCI-H460 cells after 48 hrs by sulforhodamine B assay; format: functional; conditions: NCI-H460, 48 h
# SW-620 = assay: Growth inhibition of human SW620 cells after 48 hrs by sulforhodamine B assay; format: functional; conditions: SW-620, 48 h
# OVCAR-3 = assay: Growth inhibition of human OVCAR3 cells after 48 hrs by sulforhodamine B assay; format: functional, cell-based; conditions: OVCAR-3, 48 h
# IGROV-1 = assay: Growth inhibition of human IGROV1 cells after 48 hrs by sulforhodamine B assay; format: functional; conditions: IGROV-1, 48 h
# [11] = read-out: LC50 (the source's name)
structure (smiles),measurement,setting,value
COc1cc(-c2nn(-c3cccc(NC(=O)c4ccc(Br)c(C)c4)c3)cc2-c2ccncc2)ccc1Cl,growth at 10 µM,HT-29 [1],66.6%
same,growth at 10 µM,HCT-116,70.3%
same,growth at 10 µM,SK-OV-3,90.8%
same,growth at 10 µM,SK-MEL-28,80.2%
same,growth at 10 µM,PC-3,59.4%
same,growth at 10 µM,U-251 [2],73.7%
same,growth at 10 µM,UACC-257,79.5%
same,growth at 10 µM,HL-60(TB),114%
same,growth at 10 µM,HOP-62,91.8%
same,growth at 10 µM,NCI-H226 [3],84.7%
same,growth at 10 µM,A549 [4],78.3%
same,growth at 10 µM,SNB-19,83.6%
same,growth at 10 µM,NCI-H23,86.9%
same,growth at 10 µM,786-0,85.9%
COc1cc(-c2nn(-c3cccc(NC(=O)Nc4ccccc4)c3)cc2-c2ccncc2)ccc1Cl,growth at 10 µM,HT-29 [1],84%
same,growth at 10 µM,HCT-116,87.2%
same,growth at 10 µM,SK-OV-3,97.1%
same,growth at 10 µM,SK-MEL-28,86.3%
same,growth at 10 µM,PC-3,52.5%
same,growth at 10 µM,U-251 [2],85%
same,growth at 10 µM,UACC-257,84.5%
same,growth at 10 µM,HL-60(TB),91.3%
same,growth at 10 µM,HOP-62,87.2%
same,growth at 10 µM,NCI-H226 [3],92.3%
same,growth at 10 µM,A549 [4],79.3%
same,growth at 10 µM,SNB-19,89.5%
same,growth at 10 µM,NCI-H23,100%
same,growth at 10 µM,786-0,93.1%
O=C(Nc1cccc(-n2cc(-c3ccncc3)c(-c3ccc(Cl)c(O)c3)n2)c1)Nc1ccc(Cl)c(Cl)c1,GI50,MDA-MB-468,0.729 µM
same,pIC50,MDA-MB-468,6.14
same,TGI,MDA-MB-468,4.25 µM
same,CC50,MDA-MB-468; [11],> 32.5 µM
same,GI50,U-251 [5],1.51 µM
same,LC50 (concentration killing 50% of cells),U-251 [5],> 32.5 µM
same,TGI,U-251 [5],9.68 µM
same,growth at 10 µM,HT-29 [1],45.9%
same,GI50,ACHN,1.04 µM
same,TGI,ACHN,> 32.5 µM
same,CC50,ACHN; [11],> 32.5 µM
same,growth at 10 µM,HCT-116,11.1%
same,growth at 10 µM,SK-OV-3,18.7%
same,GI50,SNB-75,1.09 µM
same,"LC50 (lethal concentration, 50% net cell kill)",SNB-75,> 32.5 µM
same,TGI,SNB-75,12.2 µM
same,GI50,SF-539,1.34 µM
same,LC50 (concentration killing 50% of cells),SF-539,> 32.5 µM
same,TGI,SF-539,8.97 µM
same,GI50,HT-29 [6],4.89 µM
same,TGI,HT-29 [6],> 32.5 µM
same,CC50,HT-29 [6]; [11],> 32.5 µM
same,growth at 10 µM,SK-MEL-28,24.6%
same,growth at 10 µM,PC-3,5.43%
same,GI50,HOP-92,0.679 µM
same,pIC50,HOP-92,6.17
same,LC50,HOP-92,> 32.5 µM
same,TGI,HOP-92,1.91 µM
same,growth at 10 µM,U-251 [2],12.4%
same,GI50,NCI-H226 [7],1.51 µM
same,TGI,NCI-H226 [7],> 32.5 µM
same,CC50,NCI-H226 [7]; [11],> 32.5 µM
same,growth at 10 µM,UACC-257,-17.3%
same,GI50,A549 [8],1.01 µM
same,LC50 (concentration killing 50% of starting cells),A549 [8],> 32.5 µM
same,TGI,A549 [8],> 32.5 µM
same,GI50,A498,0.94 µM
same,pIC50,A498,6.03
same,TGI,A498,3.17 µM
same,CC50,A498; [11],> 32.5 µM
same,GI50,MCF7,1.06 µM
same,LC50,MCF7,> 32.5 µM
same,TGI,MCF7,> 32.5 µM
same,growth at 10 µM,HL-60(TB),-6.98%
same,GI50,[9],2.74 µM
same,TGI,[9],> 32.5 µM
same,CC50,[9]; [11],> 32.5 µM
same,GI50,T47D,1.55 µM
same,TGI,T47D,17.9 µM
same,CC50,T47D; [11],> 32.5 µM
same,growth at 10 µM,HOP-62,34.4%
same,GI50,[10],2.89 µM
same,TGI,[10],13.9 µM
same,CC50,[10]; [11],> 32.5 µM
same,GI50,NCI-H460,0.993 µM
same,LC50,NCI-H460,24.2 µM
same,TGI,NCI-H460,3.57 µM
same,growth at 10 µM,NCI-H226 [3],24.7%
same,growth at 10 µM,A549 [4],4.51%
same,growth at 10 µM,SNB-19,30.3%
same,GI50,SW-620,1.46 µM
same,TGI,SW-620,> 32.5 µM
same,CC50,SW-620; [11],> 32.5 µM
same,growth at 10 µM,NCI-H23,13.5%
same,GI50,OVCAR-3,1.05 µM
same,pIC50,OVCAR-3,5.98
same,TGI,OVCAR-3,3.15 µM
same,CC50,OVCAR-3; [11],> 32.5 µM
same,growth at 10 µM,786-0,30.1%
same,GI50,IGROV-1,1.77 µM
same,LC50 (concentration killing 50% of cells),IGROV-1,> 32.5 µM
same,TGI,IGROV-1,> 32.5 µM
Cc1cc(C(=O)Nc2cccc(-n3cc(-c4ccncc4)c(-c4ccc(Cl)c(O)c4)n3)c2)ccc1Br,growth at 10 µM,HT-29 [1],107%
same,growth at 10 µM,HCT-116,94.4%
same,growth at 10 µM,SK-OV-3,100%
same,growth at 10 µM,SK-MEL-28,93.5%
same,growth at 10 µM,PC-3,86.8%
same,growth at 10 µM,U-251 [2],92.1%
same,growth at 10 µM,UACC-257,95.9%
same,growth at 10 µM,HL-60(TB),172%
same,growth at 10 µM,HOP-62,98%
same,growth at 10 µM,NCI-H226 [3],101%
same,growth at 10 µM,A549 [4],95.3%
same,growth at 10 µM,SNB-19,115%
same,growth at 10 µM,NCI-H23,97.9%
same,growth at 10 µM,786-0,106%
O=C(Nc1cccc(-n2cc(-c3ccncc3)c(-c3ccc(Cl)c(O)c3)n2)c1)c1ccc(Cl)c(C(F)(F)F)c1,growth at 10 µM,HT-29 [1],105%
same,growth at 10 µM,HCT-116,100%
same,growth at 10 µM,SK-OV-3,102%
same,growth at 10 µM,SK-MEL-28,94.1%
same,growth at 10 µM,PC-3,85.7%
same,growth at 10 µM,U-251 [2],95.9%
same,growth at 10 µM,UACC-257,104%
same,growth at 10 µM,HL-60(TB),196%
same,growth at 10 µM,HOP-62,99.4%
same,growth at 10 µM,NCI-H226 [3],103%
same,growth at 10 µM,A549 [4],88.8%
same,growth at 10 µM,SNB-19,119%
same,growth at 10 µM,NCI-H23,105%
same,growth at 10 µM,786-0,108%
O=C(Nc1cccc(-n2cc(-c3ccncc3)c(-c3ccc(Cl)c(O)c3)n2)c1)c1ccccc1,growth at 10 µM,HT-29 [1],53.5%
same,growth at 10 µM,HCT-116,57.8%
same,growth at 10 µM,SK-OV-3,80.1%
same,growth at 10 µM,SK-MEL-28,48.1%
same,growth at 10 µM,PC-3,50.3%
same,growth at 10 µM,U-251 [2],75.4%
same,growth at 10 µM,UACC-257,44.2%
same,growth at 10 µM,HL-60(TB),167%
same,growth at 10 µM,HOP-62,46.7%
same,growth at 10 µM,NCI-H226 [3],89.6%
same,growth at 10 µM,A549 [4],52.6%
same,growth at 10 µM,SNB-19,99.7%
same,growth at 10 µM,NCI-H23,90.8%
same,growth at 10 µM,786-0,76.1%

# Source: ChEMBL document CHEMBL2440076, “New triarylpyrazoles as broad-spectrum anticancer agents: design, synthesis, and biological evaluation” (Eur J Med Chem, 2013)
